These results are taken from US7759302B2, “Peptidic sulfonamides” (Merck Patent GmbH, priority 2003, dated 2010).

This assay deals with αvβ6 integrin (Homo sapiens, UniProt P06756+P18564). Nature of the assay: Influence of soluble substances on the binding of biotinylated fibronectin to immobilised αvβ6 (ELISA-type competition binding test). The following applies: competition with biotinylated fibronectin at immobilised αvβ6; standard employed in each experiment. On the procedure:
The prepared peptides according to the invention together with competing fibronectin were bound in solution to the immobilised αvβ6 receptor, and the Q value as a measure of the selectivity of the binding of the peptide to be tested to αvβ6 was determined. The Q value is calculated from the quotient of the IC50 values of test peptide and a standard. The standard used was the linear Ac-RTDLDSLR-NH2(SEQ ID NO: 22) (WO01/00660; Pytela et al., 1986, Science 231, 1559). The binding test was carried out in detail as follows:
αvβ6 was immobilised on microtitre plates by dilution of the protein solution in TBS++ and subsequent incubation overnight at 4° C. (100 μl/well). Non-specific binding sites were blocked by incubation (2 h; 37° C.) with 3% (w/v) BSA in TBS++ (200 μl/well). Excess BSA was removed by washing three times with TBSA++. […]
Unbound fibronectin and peptides were removed by washing three times with TBSA++. The bound fibronectin was detected by incubation (1 h; 37° C.) with an alkaline phosphatase-coupled antibiotin antibody (1:20000 in TBSA++; 100 μl/well). […] The colour intensity was determined at 405 nm in the ELISA measuring instrument and adjusted against a blank value. […]
IC50 values for the peptides tested were read off from a graph, and the Q value of the peptide was determined therefrom together with the IC50 of the standard.

A word on the IC50: it is the midpoint of a concentration-inhibition curve. A higher IC50 goes with lower potency. Substance “Ac-RTDLDSLR-NH2 [AC-RTDLDSLR-NH2, Ac-RTDLDSLR-NH2]” yielded an IC50 of under 100 nM.
